The numbers were not newly measured in patent US11052154B2, “Ras protein degradation inducing molecule and pharmaceutical composition” (Tokyo University of Science Foundation, priority 2016, dated 2021), which cites them from elsewhere.

Each structure is given as a SMILES string.

The target of one data set is β2i (Homo sapiens, UniProt P40306). Particulars: Table 18, 20S immunoproteasome inhibitor; cited from earlier work.
Data set [1] concerns the target T1, PAC-3 (molecule assembly factor) (Homo sapiens, UniProt Q9BT73).
T1 sequence (Q9BT73 1-122): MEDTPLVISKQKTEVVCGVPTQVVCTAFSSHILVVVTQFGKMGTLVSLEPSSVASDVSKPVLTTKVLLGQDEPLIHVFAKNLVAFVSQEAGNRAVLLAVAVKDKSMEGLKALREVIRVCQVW
Particulars: Table 17; cited from earlier work.

The target in a further data set is β5i (Homo sapiens, UniProt P28062). Particulars: Table 18, 20S immunoproteasome inhibitor; cited from earlier work.

Take `CCCC[C@@H](C=O)NC(=O)[C@H](CC(C)C)NC(=O)OCc1ccccc1` [IPSI-001]: at β2i, the “Others: immunoproteasome subunit inhibited (β2i)” value is reported as “β2i is inhibited”.

Turning to `CC(C)C(O)(CC1C(=O)/C(=C(\O)[C@H]2C3CCCC[C@H]3C=C[C@H]2C)C(=O)N1C)C(=O)O` (stereo partly drawn) [JBIR-22], in data set [1], the “Others: PAC-3 inhibition” value is listed as “PAC-3 (molecule assembly factor) inhibition)”.

In the case of `COc1ccc(C[C@H](NC(=O)[C@H](C)NC(=O)CN2CCOCC2)C(=O)N[C@@H](Cc2ccccc2)C(=O)[C@@]2(C)CO2)cc1` [PR-957], the “Others: immunoproteasome subunit inhibited (β5i)” value on β5i was “β5i is inhibited”.
